Results on 5 molecules are retold here after ChEMBL document CHEMBL1201862, “PubChem BioAssay data set” (2004).

Structures are written as SMILES. Activity calls are given as the source filed them.

The target in one assay is Genome polyprotein (dengue virus type 2, UniProt P29990). As to the kind of experiment: Dengue-2 NS5 methyltransferase inhibitors, primary screen, biochemical, confirmation dose response (AID 588689). The class given is functional.
The nature of assay [1]: cytotoxicity toward DRD oncogenic fibroblasts, dose response, cell-based, non-viral oncogenic, luminescence (AID 1934). The class given is functional. The note with it: Homo sapiens.
Another assay relates to Vero. The assay can be described thus: Vero cell cytotoxicity, cytotoxicity control for flavivirus capping enzyme inhibitors (AID 588742). In kind it is functional. The note with it: Chlorocebus sabaeus.
Another assay concerns the target Protein Tat (Human immunodeficiency virus type 1 group M subtype B (isolate HXB2)(HIV-1), UniProt P04608). The class given is functional.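 Also: tat binding to TAR RNA read out by fluorescence polarization.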
Assay [2] concerns BJ. The assay can be described thus: cells. In kind it is functional, cell-based. The note with it: Homo sapiens.
Assay [3] addresses T1, RNA-binding protein pos-1 (Caenorhabditis elegans, UniProt G5EF15).
T1 sequence (G5EF15 whole entry): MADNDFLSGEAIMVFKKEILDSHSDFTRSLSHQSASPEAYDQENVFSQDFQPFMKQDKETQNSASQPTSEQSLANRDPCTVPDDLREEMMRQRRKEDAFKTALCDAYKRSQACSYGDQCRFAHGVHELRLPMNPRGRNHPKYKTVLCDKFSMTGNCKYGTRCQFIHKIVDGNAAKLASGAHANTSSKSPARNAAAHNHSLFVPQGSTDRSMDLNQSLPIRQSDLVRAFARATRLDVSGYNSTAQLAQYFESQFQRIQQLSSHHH
The assay can be described thus: inhibitors of POS-1/mex-3 RNA binding, dose response, biochemical, fluorescence polarization (AID 1964).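 Also: purified POS-1 fused to maltose binding protein made in E. coli; potency of compounds blocking POS-1 binding to fluorescent RNA.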

Assay [4] in a line: THP-1 cell cytotoxicity, dose response, cytotoxicity control for Vif-APOBEC3G degradation inhibitor project, THP-1 cells (AID 1117359). In kind it is functional. Conditions: Human immunodeficiency virus 1, THP-1.
The target of assay [5] is T2, Replicative DNA helicase DnaB (Mycobacterium tuberculosis, UniProt P9WMR3).
T2 sequence (P9WMR3 whole entry): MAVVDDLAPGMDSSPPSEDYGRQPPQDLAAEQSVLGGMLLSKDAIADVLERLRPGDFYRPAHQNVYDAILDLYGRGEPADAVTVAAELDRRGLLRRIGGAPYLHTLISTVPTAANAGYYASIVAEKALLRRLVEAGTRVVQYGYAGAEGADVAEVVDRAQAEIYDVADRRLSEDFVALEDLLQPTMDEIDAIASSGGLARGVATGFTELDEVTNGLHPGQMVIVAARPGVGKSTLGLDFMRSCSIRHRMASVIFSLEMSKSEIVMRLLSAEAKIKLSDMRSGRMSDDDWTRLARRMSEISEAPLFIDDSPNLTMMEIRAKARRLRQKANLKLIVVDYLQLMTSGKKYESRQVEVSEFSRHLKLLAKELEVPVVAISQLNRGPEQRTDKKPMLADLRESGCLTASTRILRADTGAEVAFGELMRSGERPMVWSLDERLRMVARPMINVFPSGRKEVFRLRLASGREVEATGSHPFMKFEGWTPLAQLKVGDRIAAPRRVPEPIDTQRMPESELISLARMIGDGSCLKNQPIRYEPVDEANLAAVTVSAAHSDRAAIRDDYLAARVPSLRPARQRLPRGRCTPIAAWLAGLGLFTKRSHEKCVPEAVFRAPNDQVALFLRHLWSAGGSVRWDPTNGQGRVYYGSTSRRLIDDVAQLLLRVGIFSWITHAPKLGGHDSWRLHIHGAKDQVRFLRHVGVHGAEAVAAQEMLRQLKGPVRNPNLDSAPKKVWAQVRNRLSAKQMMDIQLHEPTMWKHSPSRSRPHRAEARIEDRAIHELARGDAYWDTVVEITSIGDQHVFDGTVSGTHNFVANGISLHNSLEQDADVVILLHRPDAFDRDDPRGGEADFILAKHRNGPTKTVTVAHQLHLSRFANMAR
As to the kind of experiment: DnaB intein splicing inhibitors, dose response, biochemical, cell-free fluorescence (AID 449749). The class given is functional.

For assay [6], the target named is T3, Zinc finger protein mex-5 (Caenorhabditis elegans, UniProt Q9XUB2).
T3 sequence (Q9XUB2 whole entry): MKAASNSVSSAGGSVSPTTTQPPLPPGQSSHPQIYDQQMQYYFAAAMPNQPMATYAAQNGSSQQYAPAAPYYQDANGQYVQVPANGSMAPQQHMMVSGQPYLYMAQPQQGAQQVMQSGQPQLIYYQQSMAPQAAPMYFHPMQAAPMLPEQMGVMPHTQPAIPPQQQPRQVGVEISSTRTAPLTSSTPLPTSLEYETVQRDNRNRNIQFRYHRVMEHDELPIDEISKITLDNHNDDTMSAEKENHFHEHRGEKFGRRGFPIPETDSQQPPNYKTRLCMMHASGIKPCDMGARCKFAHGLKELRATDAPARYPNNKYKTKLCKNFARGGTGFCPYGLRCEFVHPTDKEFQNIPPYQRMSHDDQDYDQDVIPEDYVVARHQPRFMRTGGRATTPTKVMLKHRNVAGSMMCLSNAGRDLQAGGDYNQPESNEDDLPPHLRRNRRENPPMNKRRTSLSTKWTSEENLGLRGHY
As to the kind of experiment: MEX-5/TCR-2 RNA interaction inhibitors, dose response, biochemical, C. elegans, fluorescence polarization (AID 1960).

Assay [7] has as its target Glutathione-S-transferase (Schistosoma japonicum, UniProt Q26513). As to the kind of experiment: biotin-GST/anti-GST TR-FRET signal inhibitors, dose response, artefact control for Vif-APOBEC3G degradation inhibitor project, biochemical (AID 1117362). In kind it is functional.
The subject of assay [8] is BJ. The assay can be described thus: cytotoxicity toward BJ-TERT fibroblasts, dose response, cell-based, RAS-independent, luminescence (AID 1933). The class given is functional. Conditions: Homo sapiens.
A further assay deals with T4, Protein RecA (Mycobacterium tuberculosis, UniProt P9WHJ3).
T4 sequence (P9WHJ3 whole entry): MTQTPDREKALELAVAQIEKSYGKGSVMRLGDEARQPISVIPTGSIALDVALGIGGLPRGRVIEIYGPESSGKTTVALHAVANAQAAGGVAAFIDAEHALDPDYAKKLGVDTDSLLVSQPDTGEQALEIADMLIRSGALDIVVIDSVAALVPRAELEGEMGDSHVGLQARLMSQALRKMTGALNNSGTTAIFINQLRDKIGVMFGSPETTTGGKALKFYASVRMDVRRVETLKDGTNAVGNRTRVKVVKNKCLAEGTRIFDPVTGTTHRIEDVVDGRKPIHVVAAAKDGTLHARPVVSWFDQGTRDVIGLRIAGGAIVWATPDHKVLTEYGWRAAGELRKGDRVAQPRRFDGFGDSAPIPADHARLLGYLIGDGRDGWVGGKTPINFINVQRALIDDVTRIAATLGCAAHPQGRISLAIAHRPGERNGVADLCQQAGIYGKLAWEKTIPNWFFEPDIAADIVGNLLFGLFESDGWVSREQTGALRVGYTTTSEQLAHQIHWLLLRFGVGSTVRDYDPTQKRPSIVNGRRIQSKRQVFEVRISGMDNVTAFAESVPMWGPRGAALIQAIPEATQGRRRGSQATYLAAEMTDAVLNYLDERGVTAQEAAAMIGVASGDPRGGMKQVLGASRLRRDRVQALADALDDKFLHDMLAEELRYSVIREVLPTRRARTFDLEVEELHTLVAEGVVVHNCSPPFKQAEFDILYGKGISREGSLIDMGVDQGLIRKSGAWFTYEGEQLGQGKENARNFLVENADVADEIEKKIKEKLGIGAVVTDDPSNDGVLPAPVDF
As to the kind of experiment: Fluorescence Cell-Free Homogeneous Dose Retest to Identify Inhibitors of RecA-Intein Splicing Activity. [Related pubchem assays (depositor defined):AID2097, AID2223, AID489010, AID492950]. The class given is functional.

Assay [9] deals with BJ. As to the kind of experiment: cytotoxicity toward BJ-TERT-LT-ST fibroblasts, dose response, cell-based, RAS-independent, luminescence (AID 1935).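 Also: BJ fibroblasts immortalized with TERT plus LT and ST oncogenes.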 The class given is functional. Conditions: Homo sapiens.
The nature of assay [10]: inhibitors of Vif binding to APOBEC3G peptide, primary screen, biochemical, TR-FRET, GST-Vif 1-94, biotin-A3G peptide, dose response retest (AID 1117319).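 Also: TR-FRET signal of purified GST-Vif binding a biotinylated A3G peptide; inhibitors lower the FRET signal by blocking Vif and A3G binding.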 The class given is functional.
Assay [11] deals with Diphosphomevalonate decarboxylase (Streptococcus pneumoniae serotype 2 (strain D39 / NCTC 7466), UniProt Q9FD53). The assay can be described thus: S. pneumoniae DPM-DC inhibition retest, confirmation, biochemical, cuvette format, coupled NADH fluorescence (AID 1028). The class given is functional.
Chain of Diphosphomevalonate decarboxylase (Q9FD53 whole entry): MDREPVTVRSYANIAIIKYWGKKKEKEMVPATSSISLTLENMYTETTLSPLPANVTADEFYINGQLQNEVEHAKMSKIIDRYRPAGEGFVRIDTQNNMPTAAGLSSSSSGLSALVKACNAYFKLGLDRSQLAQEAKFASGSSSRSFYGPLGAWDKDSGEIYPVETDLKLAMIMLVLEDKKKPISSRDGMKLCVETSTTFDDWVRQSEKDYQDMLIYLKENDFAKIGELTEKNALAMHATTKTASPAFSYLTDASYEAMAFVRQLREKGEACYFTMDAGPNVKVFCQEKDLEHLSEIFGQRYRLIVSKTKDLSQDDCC
For assay [12], the target named is E3 ubiquitin-protein ligase Mdm2 (Homo sapiens, UniProt Q00987). The assay can be described thus: enhancers of MDM2-luciferase reporter signal, concentration-effect titration, project on inhibitors of MDM2 ubiquitin ligase, cellular assay, luminescent readout, 384-well plate format (AID 1394).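 Also: MDM2 E3 inhibitors raise luminescence so EC50 is for signal enhancement.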 The class given is functional.
Chain of E3 ubiquitin-protein ligase Mdm2 (Q00987 whole entry): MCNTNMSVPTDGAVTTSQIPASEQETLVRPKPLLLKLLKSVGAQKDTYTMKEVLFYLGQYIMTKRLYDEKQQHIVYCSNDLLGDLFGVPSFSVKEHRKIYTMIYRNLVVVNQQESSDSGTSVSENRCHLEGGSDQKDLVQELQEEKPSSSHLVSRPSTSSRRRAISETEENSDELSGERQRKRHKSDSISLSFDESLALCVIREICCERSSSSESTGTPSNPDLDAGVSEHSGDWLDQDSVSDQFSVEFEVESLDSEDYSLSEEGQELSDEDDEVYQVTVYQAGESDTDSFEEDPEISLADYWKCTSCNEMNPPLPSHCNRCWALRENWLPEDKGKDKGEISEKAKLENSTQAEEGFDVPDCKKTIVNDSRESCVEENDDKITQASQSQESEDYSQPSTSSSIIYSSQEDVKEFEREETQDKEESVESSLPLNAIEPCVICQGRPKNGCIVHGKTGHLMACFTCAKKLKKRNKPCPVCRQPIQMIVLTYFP
In assay [13] the target is T5, Tyrosine-protein phosphatase non-receptor type 7 (Homo sapiens, UniProt P35236).
T5 sequence (P35236 whole entry): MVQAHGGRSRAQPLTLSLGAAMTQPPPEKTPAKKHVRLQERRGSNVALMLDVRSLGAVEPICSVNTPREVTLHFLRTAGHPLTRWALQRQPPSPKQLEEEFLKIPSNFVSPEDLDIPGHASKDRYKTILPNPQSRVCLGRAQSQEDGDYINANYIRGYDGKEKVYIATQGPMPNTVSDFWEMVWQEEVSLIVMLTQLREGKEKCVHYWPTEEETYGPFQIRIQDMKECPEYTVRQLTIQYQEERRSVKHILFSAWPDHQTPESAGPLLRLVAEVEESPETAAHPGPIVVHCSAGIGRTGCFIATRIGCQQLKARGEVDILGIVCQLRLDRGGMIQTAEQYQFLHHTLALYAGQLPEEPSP
As to the kind of experiment: inhibitors of human HePTP phosphatase, […], biochemical, absorbance, leukemia target (AID 521). The class given is functional.

Chain of Protein Tat (P04608 whole entry): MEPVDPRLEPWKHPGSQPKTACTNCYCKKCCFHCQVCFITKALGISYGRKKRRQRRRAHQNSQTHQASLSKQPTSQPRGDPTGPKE
Chain of Glutathione-S-transferase (Q26513 whole entry): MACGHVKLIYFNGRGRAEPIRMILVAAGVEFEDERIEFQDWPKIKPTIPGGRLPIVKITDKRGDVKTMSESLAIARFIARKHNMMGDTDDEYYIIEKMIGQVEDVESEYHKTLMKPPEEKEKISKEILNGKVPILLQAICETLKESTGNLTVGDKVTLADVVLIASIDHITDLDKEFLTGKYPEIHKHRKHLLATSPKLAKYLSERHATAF
Chain of Genome polyprotein (P29990 2492-3391 limits assumed): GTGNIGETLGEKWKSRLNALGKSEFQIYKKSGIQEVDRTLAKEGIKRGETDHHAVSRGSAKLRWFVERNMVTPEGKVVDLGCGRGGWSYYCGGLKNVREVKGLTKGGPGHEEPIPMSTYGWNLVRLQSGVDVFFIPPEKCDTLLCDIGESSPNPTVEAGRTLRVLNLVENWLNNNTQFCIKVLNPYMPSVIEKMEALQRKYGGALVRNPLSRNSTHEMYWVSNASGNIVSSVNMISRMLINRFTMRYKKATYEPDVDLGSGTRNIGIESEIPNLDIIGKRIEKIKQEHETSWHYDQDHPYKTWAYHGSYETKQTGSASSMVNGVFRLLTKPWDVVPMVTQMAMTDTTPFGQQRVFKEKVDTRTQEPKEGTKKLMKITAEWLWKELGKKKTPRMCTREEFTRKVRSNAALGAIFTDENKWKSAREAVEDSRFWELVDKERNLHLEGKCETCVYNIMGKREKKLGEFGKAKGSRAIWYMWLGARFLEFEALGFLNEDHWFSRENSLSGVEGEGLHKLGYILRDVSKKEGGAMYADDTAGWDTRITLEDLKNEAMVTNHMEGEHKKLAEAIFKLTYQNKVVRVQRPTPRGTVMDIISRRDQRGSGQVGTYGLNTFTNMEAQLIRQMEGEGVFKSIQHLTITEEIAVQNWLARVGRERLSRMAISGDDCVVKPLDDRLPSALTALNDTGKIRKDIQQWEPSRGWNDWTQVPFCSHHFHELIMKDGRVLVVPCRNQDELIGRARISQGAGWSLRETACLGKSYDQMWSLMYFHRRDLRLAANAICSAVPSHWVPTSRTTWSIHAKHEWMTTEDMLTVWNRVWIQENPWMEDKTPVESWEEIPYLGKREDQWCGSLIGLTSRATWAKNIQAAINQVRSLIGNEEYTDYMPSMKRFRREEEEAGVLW

`O=C1C=C(Nc2cccc3cccnc23)c2ccccc2C1=O`: the figures for the IC50 (at Genome polyprotein; at Protein Tat; in [7]) were 50.4 µM (active), > 100 µM (active) and > 100 µM (active), respectively. Also, the concentration for a half-maximal effect (EC50) in [1] was 2.77 µM (inconclusive); in the assay on BJ [2] it was 3.05 µM (active); in assay [3], 47.6 µM (active); in assay [6], 28.7 µM (active); in the assay on BJ [8], 1.57 µM (inconclusive); on Protein RecA it was 2.89 µM (active). For the same molecule, the EC50 with BJ [9] is 6.37 µM (inconclusive). Besides, the CC50 in the assay on Vero is 4.45 µM (active); in assay [4], 0.34 µM (active). The AC50 in [5] is > 380 µM (inactive).
Take `COc1cc(O)oc1/C=N/c1ccccc1`: the IC50 in [10] is > 100 µM (active).
Turning to `O=C(NCCN1CCCC1)c1ccc(-n2sc3ccccc3c2=O)cc1`, in assay [11], the half-inhibitory concentration (IC50) is 33 µM (active).
On to `Cc1nn(-c2nnc(NCc3ccccc3)nn2)c(C)c1Br`, for which the EC50 in assay [12] is recorded as 13.3 µM (not active).
Consider `O=C(CCSCCC(=O)NCc1ccco1)NCc1ccco1`, for which the IC50 in assay [13] was 4.15 µM (active).
